In patent US9198942B1, “Method of preparing bioactive compound from solid-state cultivated Antrodia cinnamomea mycelium for anti-metastasis against lung cancer cells” (TAIWAN LEADER BIOTECH CORP., priority 2014, dated 2015):

How the values were obtained:
Type in all cases: cell-based, human
A549 lung cancer cells [1] = experiment: MTT survival rate of A549 cells; conditions: A549, 0~40 μM, 24 hr
Procedure: (§1) The present invention selects a human lung cancer cell, A549, for exploring lung cancer cell metastasis. For culturing A549, the A549 cells grown in 75 T flask are replanted in a 10 square-centimeter (cm^2) dish at a seeding density of 2×10^5 cells per square-centimeter (cells/cm^2) to be cultured at 37 Celsius degrees (° C.) in an incubator having 5% carbon dioxide (CO2). The culture medium used is Ham's F12 (which is recommended by Bioresources Collection and Research Center (BCRC), Taiwan, and American Type Culture Center (ATCC)) and is added with extra 10% fetal bovine serum. State-of-Use 2: Preparing Extracts of Solid-State Cultivated Antrodia cinnamomea Mycelium
At first, A549 cells are cultured as described in state-of-use 1. After being washed with tripsin, the cells are replanted for 24 hr in a dish having 24 wells at a seeding density of 2×10^5 cells/cm^2. In Table 1, Leader 1 having a concentration of 0, 5, 10, or 40 μM is cultured for 24 hr to be applied to A549, where Leader 1 having 0 μM is added with DMSO to be used as a control group. […] Then, the cell membrane and the blue-violet crystals are dissolved with DMSO to acquire light-absorbance rates with a wavelength of 570 nm for forming a statistical diagram by using sigma plot 10.0.

A549 lung cancer cells [2] = experiment: Wound healing of A549 cells; conditions: A549, 5-40 μM, observed at 0, 12, 24 or 48 hr; especially 40 μM
Procedure: as §1
At first, lung cancer cells A549 are cultured as described in state-of-use 1. After being washed down with tripsin, the cells are replanted in a 12-well plate at a seeding density of […] for 24 hr for attachment. Then, a wound line is made in each well. After floating part of the cells are removed by being slight-washed with PBS, the cells are added to culture media having concentrations of 0, 5, 10, 20 and 40 μM of Leader 1 for observation at time points of 0, 12, 24 or 48 hr to be photographed as records, where a medium dosed with 0 μM of DMSO is used as a control group.

A549 lung cancer cells [3] = experiment: Transwell migration of A549 cells; conditions: A549, 5-40 μM for 24 hr, with or without TNF-α induction, 12 or 24 hr; especially 40 μM
Procedure: 24-well transwell kits (Millipore Co.) are used for analyzing lung cancer cell migration.
At first, lung cancer cells A549 are cultured as described in state-of-use 1. After being washed down with tripsin, the cells are replanted in a 12-well plate at a seeding density of 2×10^5 cells/cm^2 for 24 hr for attachment. After being added into media having concentrations of 0, 5, 10 and 40 μM of Leader 1 for 24 hr, the cells are rinsed with PBS and, then, dropped down with tripsin. The cells are loaded into centrifuge tubes for centrifugal rotation at a speed of 1280 rpm for 3 min to remove supernatant. Residual serum is removed by slow-washing with PBS. Then, centrifugal rotations are processed at a speed of 1280 rpm for 3 min. The cells are added into culture media at a density of 2×10^5 cells/cm^2, where the media are located at an upper layer of the kit and injected with a 200 μl solution containing only 0.1% fetal bovine serum. Another media are located at a lower layer of the kit and containing 20% fetal bovine serum (induced or not induced with TNF-α). The kit having the two layers of media is put in an incubator to be observed after 12 or 24 hr.
(§2) The kit is soaked in methanol and stayed still for 20 min to be dried afterwards. Then, the kit is soaked in Gimsa to be dyed for 20 min. […]

A549 lung cancer cells [4] = experiment: Matrigel transwell invasion of A549 cells; conditions: A549, 5-40 μM for 24 hr, 12 or 24 hr, especially 40 μM
Procedure: The 24-well kit is used for analyzing lung cancer cell invasion. The kit is prepared by injecting Matrigel (3 mg/ml-well, BD science) into the upper layer of the kit, to be placed in an incubator for 24 hr and, then, process solidification.
At first, lung cancer cells A549 are cultured as described in state-of-use 1. After being washed down with tripsin, the cells are replanted in a 6-well plate at a seeding density of 2×10^5 cells/cm^2 for 24 hr for attachment. After being added into media having concentrations of 0, 5, 10 and 40 μM of Leader 1 for 24 hr, the cells are rinsed with PBS and, then, dropped down with tripsin. The cells are loaded into centrifuge tubes for centrifugal rotation at a speed of 1280 rpm for 3 min to remove supernatant. Residual serum is slowly removed by washing with PBS. Then, centrifugal rotations are processed at a speed of 1280 rpm for 3 min. The cells are added at a density of 2×10^5 cells/cm^2 into culture media, where the media are located at the upper layer and injected with a 200 μl solution containing only 0.1% fetal bovine serum. Another media are located at the lower layer and contain 20% fetal bovine serum. The kit is put in an incubator to be observed after 12 or 24 hr.
as §2

[5] = system: matrix metalloproteinase (MMP-2, MMP-9); experiment: Gelatin zymography of gelatinase activity in A549 cells; conditions: A549, 5-40 μM for 24 hr; especially 40 μM
Procedure: Electrophoresis is used to detect hydrolytic enzymes. Gelatin zymography is used to analyze activities of gelatinases (MMP-2, MMP-9) in matrix metalloproteinase (MMP) of lung cancer cells.
(§3) At first, lung cancer cells A549 are cultured as described in state-of-use 1. After being washed down with tripsin, the cells are replanted in a 12-well plate at a seeding density of 2×10^5 cells/cm^2 for 24 hr for attachment. Then, the kit is rinsed with PBS two times. After being added into media having concentrations of 0, 5, 10 and 40 μM of Leader 1 for 24 hr, the cells are added into media having 1% fetal bovine serum for 24 hr for obtaining culture media containing the cells. The kit is put into an Eppendorf centrifuge tube for centrifugal rotation at a 1250 rpm speed for 10 min. Then, the supernatant is taken out to be stored at −20° C.
An equivalent amount of the supernatant is added into 8%-gradient colloidal wells of gel (SDS-PAGE, containing 1 mg/ml gelatin) with a 6-times MMP dye. A running buffer is added and reaction stops after 45 kD of a MMP marker is resolved into the gel with a current of 80 V and 300 mA.
(§4) The gel is taken out for reaction in a zymography renaturing buffer at a 35 rpm speed. The reaction is done for 2 times at a room temperature and it takes 30 min for each time. […]

[6] = system: urokinase-type plasminogen activator (uPA); experiment: Casein-plasminogen zymography of uPA activity in A549 cells; conditions: A549, 5-40 μM for 24 hr; especially 40 μM
Procedure: Electrophoresis is used for detecting hydrolytic enzymes. The part regarding plasminogen in casein-zymography is used for analyzing activity of urokinase-type plasminogen activator (uPA) of lung cancer cells, where uPA would decompose plasminogen into plasmin.
as §3
An equivalent amount of the supernatant is added into 8%-gradient colloidal wells of gel (containing 15 μl/ml plasminogen and 1 mg/ml gelatin) with a 6-times MMP dye. A running buffer is added and reaction stops after 45 kD of a MMP marker is resolved into the gel with a current of 80 V and 300 mA.
as §4

[7] = system: related proteases and proteins that promote metastasis (p-Akt, E-cadherin, MMP-2,9, TIMP-1); experiment: Western blot of metastasis-related proteases and proteins in lung cancer cells; conditions: β-actin as control
Procedure: After total proteins of the cell are obtained, an equivalent amount of proteins are added to 8-10% gradient electrophoresis gel wells at a current of 80 V and 300 mA for 240 min for separating the total proteins. The total proteins sorted according to their sizes are blotted on a polyvinylidene difluoride (PVDF) membrane at a condition using a 100 V current for 2 hr. Then, the PVDF membrane is reacted with a blocking buffer for 1 hr. Therein, the blocking buffer contains 10% w/v skim milk powder in a TBS-T buffer, and the TBS-T buffer contains a TBS buffer having 0.1% Tween 20.
Thereafter, the PVDF membrane is immersed in an antibody solution of actin (Cell signaling Co.); an antibody solution of p-Akt or protein kinase B (1:1000, Cell signaling Co.); an antibody solution of E-cadherin (1:1000, Cell signaling Co.); an antibody solution of MMP-2,9 in matrix metalloproteinase (1:1000, Santa Cruz Co.); and an antibody solution of TIMP-1 (1:1000, Cell signaling Co.). […]
Then, the PVDF membrane is immersed in an anti-mouse secondary antibody solution having horseradish peroxidase and an anti-rabbit secondary antibody solution for reaction at a room temperature for 1˜2 hr. […] Then, an enhanced chemiluminescene (ECL) regent is used to detect fluorescence intensity, where β-actin protein is used as a control group of expression for statistical mapping with sigma plot 10.0.

## COc1cc(C)c(OC)c(OC)c1O [Leader 1, 2,3,6-trimethoxy-4-methylphenol]
A549 lung cancer cells [1]
  survival rate of lung cancer cells (cytotoxicity): no cytotoxicity to lung cancer cells
A549 lung cancer cells [2]
  suppressing wound healing of lung cancer cells: shows its ability on suppressing wound healing of lung cancer cells
A549 lung cancer cells [3]
  suppressing migration of lung cancer cells: shows activity on suppressing migration of lung cancer cells
A549 lung cancer cells [4]
  suppressing invasion of lung cancer cells: shows ability on suppressing invasion of lung cancer cells
[5]
  suppressing matrix metalloproteinase (MMP-2, MMP-9) activity of lung cancer cells: shows ability on suppressing matrix metalloproteinase (MMP-2, MMP-9) activity of lung cancer cells
[6]
  suppressing plasminogen activator of lung cancer cells: shows activity on suppressing plasminogen activator of lung cancer cells
[7]
  suppressing related proteases and proteins that promote metastasis of lung cancer cells: shows ability on suppressing related proteases and proteins that promote metastasis of lung cancer cells
